B1: m-Leptin: murine leptin (protein, UniProt P41160 22-167, looked up)
Leptin: VPIQKVQDDTKTLIKTIVTRINDISHTQSVSAKQRVTGLDFIPGLHPILSLSKMDQTLAVYQQVLTSLPSQNVLQIANDLENLRDLLHLLAFSKSCSLPQTSGLQKPESLDGVLEASLYSTEVVALSRLQGSLQDILQQLDVSPEC

System: SD rats
Experiment: Effect of leptin fragments given intracerebroventricularly on food intake and body weight in SD rats
Type: in vivo
Conditions: single icv injection, measured 24 h later, n = 8, * P < 0.05
Protocol: Effect of Leptin Fragments on Food Intake in SD Rats
Rats are pre-treated with Synulox (0.1 ml/100 g) approx 1 hour before anaesthesia, and then anaesthetised with Domitor (0.04 ml/100 g i.m.) and sublimase (0.9 ml/100 g i.p.) Each rat has a cannula implanted stereotaxically into the lateral brain ventricle under sterile conditions. Anaesthesia is then reversed using Antisedan and Nubain (50% v/v :50% v/v 0.02 m1/100 g) I.P. After surgery each rat receives 0.05 ml Zenecarp.
Experiment 1: Following surgery the body weight of each animal was monitored daily throughout the procedure.
In order to verify that the cannula was in the lateral ventricle, Angiotensin II (100 ng/5 μl ) was injected icv and water intake was monitored for 5 min after injection.
24 hour food intake was measured on day 5 and 6 after surgery. On day 6 the animals were divided according to their body weight into 3 groups (a,b and c, 8 rats per group) and then fasted overnight. On the day of experiment (day 7) rats were injected icv as follows::
group a-vehicle (PBS, phosphate buffer solution, 5 μl/rat);
group b-human leptin (11.5 μg/5 μl); and
group c-leptin tryptic digest (30 μg/5 μl).
A known quantity of food in excess of the daily requirement was supplied to the rats immediately after the icv injection procedure was completed. Food intake and body weight were then measured 24h later.
Experiment 2: A separate group of animals was prepared exactly as described above but on the day of experiment after overnight fast, groups of rats were injected as follows:
group a-vehicle (PBS 5 μl /rat);
group b-human leptin ([…]);
group c-murine leptin (10 μg/5 μl);
group d-ob 57-74, sequence VTGLDFIPGLHPILTLSK (3.33 μg/5 μl);
Again a pre-weight quantity of food, in excess of the daily requirement, was re-given following the injection; change in body weight and the quantity of food consumed were recorded 24h later.

[1] = Experiment 2, Table 2, overnight fast, h-leptin 8.75 μg/rat, m-leptin 10 μg/rat, fragment 57-74 3.33 μg/rat
[2] = Experiment 1, Table 1, overnight fast, h-leptin 11.5 μg/rat, tryptic digest 30 μg/rat

Molecule	24 h food intake [1]	Bwt Change [1]	24 h food intake [2]	Bwt Change [2]
VTGLDFIPGLHPILTLSK [Leptin fragment 57-74, fragment of human ob protein, amino acid residues 57 to 74]	33.6 ± 0.9 g	26.8 ± 1.2* g/24 h		
h-Leptin: human leptin (human ob protein)	33.7 ± 1.6 g	24.5 ± 3.7 g/24 h	30.62 ± 1.5* g	22.88 ± 2.05* g/24 h
B1	31.3 ± 1.7 g	23.7 ± 2.18* g/24 h		

Source: patent US20030092126A1, “Fragments of leptin (ob protein)” (SmithKline Beecham p.l.c., priority 1996, published 2003)
